{"source": "paper PMC9047634", "about": "(RSC Advances, 2019)", "biological_target": "chorismate mutase (CM) (Mycobacterium tuberculosis, UniProt P9WIB9)", "sequence (P9WIB9 34-199)": "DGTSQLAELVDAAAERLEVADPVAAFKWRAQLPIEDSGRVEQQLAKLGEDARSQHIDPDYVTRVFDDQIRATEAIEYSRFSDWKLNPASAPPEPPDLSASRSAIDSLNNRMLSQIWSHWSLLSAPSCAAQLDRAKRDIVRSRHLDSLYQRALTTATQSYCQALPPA", "assay": "biochemical", "details": "read-out: % Inhibition @ 30 μM ^a"}
{"compound": "COc1ccc(CCNc2c([N+](=O)[O-])cc(C(=O)O)cc2S(N)(=O)=O)cc1OC", "note": "[G, 4-(3,4-dimethoxyphenethylamino)-3-nitro-5-sulfamoylbenzoic acid]", "values": [{"measurement": "inhibition at 30 µM", "value": 57, "unit": "%"}]}
